For assay [1], the target named is T1, Mtb BioA (Mycobacterium tuberculosis, UniProt P9WQ81). In kind it is binding. As to conditions: for KA / ΔH / −TΔS / ΔG: 25 °C; for KA / ΔH: 100 µM BioA, pH 7.5; for −TΔS: from ΔG = ΔH − TΔS; for ΔG: ΔG = −RT ln KA; for LE (ligand efficiency): LE = (−ΔG)/N, N = number of non-hydrogen atoms.
Assay [2] concerns the target T1, Mtb BioA. Nature of the assay: Differential scanning fluorimetry. In kind it is binding. As to conditions: DSF; holo BioA Tm 85 °C.

T1 sequence (P9WQ81 whole entry): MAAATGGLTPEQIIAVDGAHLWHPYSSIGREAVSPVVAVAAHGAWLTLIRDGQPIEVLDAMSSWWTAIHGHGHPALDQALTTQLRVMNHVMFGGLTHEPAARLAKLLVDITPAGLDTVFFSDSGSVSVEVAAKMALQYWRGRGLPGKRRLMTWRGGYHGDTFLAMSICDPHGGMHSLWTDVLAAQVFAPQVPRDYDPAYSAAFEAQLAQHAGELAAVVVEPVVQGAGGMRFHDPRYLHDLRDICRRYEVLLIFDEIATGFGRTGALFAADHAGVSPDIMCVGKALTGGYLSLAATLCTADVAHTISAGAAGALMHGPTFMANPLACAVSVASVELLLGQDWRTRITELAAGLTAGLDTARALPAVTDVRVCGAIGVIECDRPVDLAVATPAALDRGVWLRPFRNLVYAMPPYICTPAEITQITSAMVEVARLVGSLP

For the compound `CNCc1ccc(Cn2cccn2)cc1` [F5], on Mtb BioA [1] (ITC), the “ΔH (enthalpic stabilization)” value is -12.9 kcal/mol, the “−TΔS (binding entropy)” value is reported as “+6.2 kcal/mol”, the KA is listed as 8.6 ± 0.1 10^4 M^−1 and the ΔH was -12.9 ± 0.6 kcal/mol. Moreover, on Mtb BioA [1] (ITC), the “−TΔS” value was found to be 6.2 ± 0.6 kcal/mol and the ΔG was -6.7 ± 0.0 kcal/mol. Moreover, at Mtb BioA [1], the “LE (ligand efficiency)” value was 0.45.

For the compound `NCc1ccc(Cn2cc(Cl)cn2)cc1` [F5.1], the “Tm of BioA with compound” value on Mtb BioA [2] is 73 °C. Moreover, on Mtb BioA [1] (ITC), the “Improvement in KD over the parent fragment F5” value was determined as 1.7 fold, the KA is recorded as 14.9 ± 1.7 10^4 M^−1, the ΔH is -11.3 ± 0.5 kcal/mol and the “−TΔS” value is 4.3 ± 0.5 kcal/mol. This compound also had a ΔG on Mtb BioA [1] (ITC) of -7.0 ± 0.1 kcal/mol. For the same compound, the “LE (ligand efficiency)” value at Mtb BioA [1] came to 0.47.

Take `NC(=O)c1ccc(-n2ccnc2)cc1` [F3]: on Mtb BioA [1] (ITC), the KA was 6.8 ± 1.3 10^4 M^−1, the ΔH was -6.3 ± 0.2 kcal/mol, the “−TΔS” value was -0.2 ± 0.1 kcal/mol and the ΔG is -6.6 ± 0.1 kcal/mol. Moreover, the “LE (ligand efficiency)” value at Mtb BioA [1] is listed as 0.47.

Turning to `NC(=O)c1ccc(-c2ccccn2)s1` [F2], at Mtb BioA [1] (ITC), the KA was 14.6 ± 1.3 10^4 M^−1, the ΔH was -5.4 ± 0.0 kcal/mol, the “−TΔS” value was -1.6 ± 0.1 kcal/mol and the ΔG is -7.0 ± 0.1 kcal/mol. In addition, the “LE (ligand efficiency)” value on Mtb BioA [1] was determined as 0.50.

For the compound `O=C(c1ccccc1)C1CCNCC1` [F7], at Mtb BioA [1] (ITC), the KA is given as 2.4 ± 0.4 10^4 M^−1, the ΔH is -4.9 ± 0.2 kcal/mol, the “−TΔS” value was -1.1 ± 0.2 kcal/mol and the ΔG was -6.0 ± 0.1 kcal/mol. Also, the “LE (ligand efficiency)” value on Mtb BioA [1] stood at 0.43.

On to `CC(=O)Nc1ccc2c(c1)C=CC2=O` [F9], for which, on Mtb BioA [1] (ITC), the KA is listed as 4.6 ± 0.3 10^4 M^−1, the ΔH was -3.3 ± 0.2 kcal/mol, the “−TΔS” value is -3.0 ± 0.2 kcal/mol and the ΔG is -6.3 ± 0.0 kcal/mol. Besides, the “LE (ligand efficiency)” value at Mtb BioA [1] worked out at 0.45.

For `NCc1nc2ccccc2s1` [F10], on Mtb BioA [1] (ITC), the KA is 3.3 ± 0.5 10^4 M^−1, the ΔH is -1.4 ± 0.2 kcal/mol, the “−TΔS” value was -4.8 ± 0.1 kcal/mol and the ΔG was -6.1 ± 0.1 kcal/mol. On Mtb BioA [1], the “LE (ligand efficiency)” value was found to be 0.55.

The values are drawn from paper PMC4687966 (Journal of medicinal chemistry, 2015).
